Source: patent US9216215B2, “Adjuvant system for vaccine adjuvant” (VAXFORM LLC, priority 2010, dated 2015)

Tests used:
[1] = Linkage of CTL receptor agonist to aluminum adjuvant (FIG. 2); format: physicochemical; settings: aluminum oxyhydroxide
Text: However, monosaccharides can be modified by a chemical group including but not limited to fluoride, phosphate, sulfate, or carbonate group which permits a ligand exchange linkage of the molecule to the aluminum-containing adjuvant. Method for modifying saccharides by addition of fluoride, phosphate, sulfate, or carbonate groups is well known in the art (Cantos, et al. Biochem. J. (1993) 289: 155-160; Carbohydrate Chemistry, Royal Society of Chemistry, Ed. R D Guthrie (1968)). This is illustrated in FIG. 2 utilizing mannose as the CTL receptor agonist and aluminum oxyhydroxide. […] However, addition of a phosphate group at the 1 position of mannose (MIP) results in approximately 100% linkage of the CTL agonist to the aluminum adjuvant.
Another method to the increased avidity of the saccharide for the aluminum adjuvant particle is polymerization. For instance the avidity of the saccharide for the aluminum adjuvant particle may be increased by increasing the size of the saccharide by polymerization to produce a polysaccharide. The increase avidity for the aluminum adjuvant is due to the larger number of interactions of a polysaccharide as compared to a monosaccharide to allow for the stable linkage of the polysaccharide agonist to the aluminum adjuvant particle. […]

[2] = Stability of CTL agonist linkage to aluminum oxyhydroxide on exposure to phosphate (FIG. 3A, 3B); format: physicochemical; settings: 50 mM phosphate pH 7.4 for 30 minutes, absence of antigen
Text: It is important to maintain the stability of the CTL agonist linkage to the aluminum particle upon exposure to body fluid following administration. Components of interstitial fluid such as phosphate, citrate, and protein have the potential to remove the linkage of the CTL agonist with aluminum-containing adjuvants. The resulting soluble CTL agonist may adversely impact the immune response. FIG. 3A illustrates that MIP as well as mannan maintain approximately 100% linkage with aluminum oxyhydroxide when exposed to 50 mM phosphate pH 7.4 for 30 minutes in the absence of antigen.

Row | Compound | linkage of the CTL agonist to the aluminum adjuvant [1] | linkage with aluminum oxyhydroxide maintained [2]
1 | O=P(O)(O)OC1O[C@H](CO)[C@@H](O)[C@H](O)[C@@H]1O (stereo partly shown) [MIP, Mannose-1-phosphate] | approximately 100% | approximately 100%
2 | mannan | approximately 100% | approximately 100%
